# Data as given in article PMC12596195, “Mei5–Sae3 stabilizes both active and inactive forms of Dmc1 filaments independently of its impact on ATP hydrolysis” (Nucleic Acids Research, 2025).
# Columns and labels:
# [1] = target: T1, ScDmc1 (Dmc1–WT) (Saccharomyces cerevisiae, UniProt P25453); experiment: nitrocellulose filter binding; conditions: 3 µM Dmc1, 90 nt ssDNA (6 µM nt), 5 mM Mg2+, 70 µM Ca2+, pH 7.5, 30°C; labelled compound (alpha-32P); read-out: KD (apparent)
# T1 construct: N-terminal 6x-His tag (kept), expressed in E. coli; nucleoprotein filament on 90 nt ssDNA
# T1 sequence (P25453 1-334): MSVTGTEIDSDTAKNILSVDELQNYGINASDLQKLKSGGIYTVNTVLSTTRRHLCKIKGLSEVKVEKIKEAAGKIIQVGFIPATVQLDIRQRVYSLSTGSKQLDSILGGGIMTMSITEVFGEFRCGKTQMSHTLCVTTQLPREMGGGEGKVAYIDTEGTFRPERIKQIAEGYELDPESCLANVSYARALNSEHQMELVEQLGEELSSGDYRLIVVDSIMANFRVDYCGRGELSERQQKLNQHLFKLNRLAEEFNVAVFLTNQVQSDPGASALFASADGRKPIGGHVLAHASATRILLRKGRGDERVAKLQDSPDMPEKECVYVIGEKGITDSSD
# From the text: nitrocellulose filter binding on ScDmc1 (Dmc1–WT) | Dmc1–WT binds ATP with the same apparent affinity in the presence and absence of Mei5–Sae3
# [2] = target: T2, ScDmc1 (Saccharomyces cerevisiae, UniProt P25453, E157D); experiment: nitrocellulose filter binding; conditions: 3 µM Dmc1, 90 nt ssDNA (6 µM nt), 5 mM Mg2+, 70 µM Ca2+, pH 7.5, 30°C; labelled compound (alpha-32P)
# T2 construct: gene DMC1; N-terminal 6x-His tag (kept), expressed in E. coli; nucleoprotein filament on 90 nt ssDNA
# T2 sequence (P25453 1-334 E157D): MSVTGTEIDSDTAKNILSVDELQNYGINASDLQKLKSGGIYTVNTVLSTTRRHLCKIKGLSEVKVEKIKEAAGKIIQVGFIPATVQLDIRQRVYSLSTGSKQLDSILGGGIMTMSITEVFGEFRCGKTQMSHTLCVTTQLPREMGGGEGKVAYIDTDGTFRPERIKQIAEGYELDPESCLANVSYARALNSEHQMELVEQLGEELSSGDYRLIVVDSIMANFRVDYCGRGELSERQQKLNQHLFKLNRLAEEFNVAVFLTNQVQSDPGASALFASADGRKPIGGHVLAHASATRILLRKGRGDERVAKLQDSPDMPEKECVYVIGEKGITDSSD
compound,measurement,setting,value
Nc1ncnc2c1ncn2[C@@H]1O[C@H](COP(=O)(O)OP(=O)(O)OP(=O)(O)O)[C@@H](O)[C@H]1O [ATP],Kd,[1],5 to 6 µM
same,nitrocellulose filter binding,[2],ATP binding activity of Dmc1–E157D and found it was significantly reduced
